Experimental data published in BigSolDB 2.1.

C1=Cc2ccccc2Nc2ccccc21
solubility (mole fraction)
Details	278.15 K	283.15 K	288.15 K	293.15 K	298.15 K	303.15 K	308.15 K	313.15 K	318.15 K	323.15 K
in 1,4-dioxane	–	–	0.0312	0.0349	0.0392	0.0423	0.0481	0.052	0.058	0.0632
in DMAc	0.113	0.122	0.13	0.139	0.149	0.159	0.17	0.179	0.192	0.203
in DMF	0.109	0.116	0.122	0.129	0.136	0.144	0.153	0.161	0.169	0.178
in NMP	0.219	0.223	0.23	0.239	0.246	0.251	0.257	0.265	0.273	0.281
in acetone	0.0162	0.0178	0.0197	0.0219	0.0242	0.0268	0.0296	0.0327	0.0363	0.04
in acetonitrile	0.00245	0.00298	0.00345	0.00412	0.00489	0.00575	0.00676	0.00782	0.00933	0.0108
in ethyl acetate	0.01	0.0116	0.0133	0.015	0.0172	0.0193	0.0214	0.0243	0.0271	0.03
in isobutyl acetate	0.0105	0.0119	0.0132	0.0146	0.0161	0.0184	0.0206	0.023	0.0257	0.0285
in isopropyl acetate	0.00918	0.0104	0.0118	0.0133	0.0152	0.0168	0.0181	0.0202	0.0222	0.0249
in methyl acetate	0.00825	0.0092	0.0102	0.0118	0.0132	0.015	0.017	0.0192	0.0215	0.0239
in n-butyl acetate	0.0133	0.0152	0.0171	0.0189	0.0208	0.0236	0.0261	0.0289	0.0321	0.0362
in n-propyl acetate	0.0126	0.0143	0.0157	0.0175	0.0194	0.0215	0.0239	0.0267	0.0299	0.0331
